Measured values taken from patent publication US20140024683A1, “CHLORIDE CHANNEL AND CHLORIDE TRANSPORTER MODULATORS FOR THERAPY IN SMOOTH MUSCLE DISEASES” (priority 2011, published 2014).

Assays:
[1] = test system: human airway smooth muscle strips; test: Organ bath force, acetylcholine-induced contractions of human airway smooth muscle strips after pretreatment; details: 100 μM, separate blockade (alone)
Description: Human muscle tissue was acquired from excess lung airways trimmed during surgery from healthy lung transplant donors. Acquired tissue was stored overnight at 20° C. Airway smooth muscle contractions measured ex vivo in organ baths were performed as previously described (Gallos et al., 2008; Gallos et al., 2009, Gallos et al., 2011; Gleason et al., 2010; Yim et al., 2011; Mitzuta et al., 2008). Closed guinea pig tracheal rings or strips of human airway smooth muscle (tracheal or main stem bronchus) were suspended in organ baths, which had 95% oxygen constantly perfusing through Dulbecco's Modified Eagle Medium. Rings were cut on the cartilaginous borders of the smooth muscle. The epithelial layer was dissected under microscopic assistance. […]
Following equilibration, in guinea pig experiments, the capsaicin analog N-vanillylnonanamide (10 μM final) was added to the organ baths to first activate and then deplete nonadrenergic, noncholinergic nerves. […] To avoid bias between treatment groups, tissues were contracted to individually calculated EC50 values for acetylcholine and tissues with similar Emax values were randomly assigned to treatments within individual experiments. […]

[2] = test system: human airway smooth muscle cells; test: MQAE fluorescence assay of intracellular chloride; type: cell-based
Description: To determine whether blockade of CaCCs or NKCCs induce changes in intracellular chloride concentrations in human airway smooth muscle cells, the MQAE in vitro fluorescent dye assay (Invitrogen) was used. Briefly, human airway smooth muscle cells were grown to 100% confluence in 96-well black-walled plates. Cells were loaded overnight with 10 mM MQAE in serum-free basal cell culture medium (M199, Invitrogen) and were washed once with warmed (37° C.) normal-chloride buffer [consisting of (in mM) 130 sodium chloride, 2 CaCl2, 1 MgCl2, 10 D-glucose, and 10 HEPES, pH 7.4]. […] An increase in fluorescence represents decreased intracellular chloride (removal of halide quenching of MQAE) while decreased fluorescence represents increased intracellular chloride (enhanced halide quenching of MQAE).

[3] = test system: human airway smooth muscle cells; test: FLIPR membrane potentiometric dye assay (Example 21); type: cell-based
Description: Immortalized airway smooth muscle cell lines modified to stably express human telomerase reverse transcriptase were a kind gift from Dr. William Gerthoffer (University of Southern Alabama, Mobile, Ala.) prepared as described previously (Gosens et al., 2006) and grown in Dulbecco's Modified Eagle's Medium/F12 media (GIBCO, Grand Island, N.Y.), with 10% FBS and antibiotics.
Immortalized human airway smooth muscle cells were cultured on black-walled 96 well plates to 100% confluence, and were washed four times with warmed (37° C.) assay buffer of the following composition (in mM): NaCl 140, KCl 4.7, CaCl2 2.5, MgCl2 1.2, HEPES 11, D-glucose 10. A stock solution (100% dye) of FLIPR blue dye was prepared by reconstitution of 1 vial (125 mg) with 100 ml assay buffer. A 50% working stock was prepared by further diluting the reconstituted blue dye 1:1 with assay buffer and was used to load cells (90 μl/well) over 45 min at 37° C. in a humidified cell culture incubator (95% air/5% CO2). All reagents were dissolved in assay buffer. Fluorescence was measured with a Flex Station 3 (Molecular Devices) using an excitation wavelength of 530 nm, emission wavelength of 565 nm and a cutoff filter of 550 nm. Baseline fluorescence was measured every 2 seconds for 1 minute then for 2 minutes after injection of vehicle or compound of interest as indicated (using the Flexstation's 3 integrated injection capabilities).
Human airway smooth muscle cells were incubated with FLIPR membrane potentiometric dye to assess if the chloride channel blockers changed membrane potential at the cellular level. FLIPR fluorescence will increase with depolarization, and decrease with hyperpolarization. […] Therefore, chloride channel blockade, but not NKCC blockade, hyperpolarized human airway smooth muscle cells.

CCCCNc1cc(C(=O)O)cc(S(N)(=O)=O)c1Oc1ccccc1 [bumetanide]
effect on acetylcholine-induced contraction [1]: does not significantly reduce contraction | intracellular chloride (MQAE fluorescence) ([2]; 10 μM bumetanide): impairs chloride entry | intracellular chloride (MQAE fluorescence) ([2]; 10 μM bumetanide, listed as Bumetanide): decreases [Cl^−]i | change in membrane potential (FLIPR) ([3]; 10 μM bumetanide): did not cause a significant change

O=C(O)c1cccnc1Nc1cccc(C(F)(F)F)c1 [niflumic acid]
effect on acetylcholine-induced contraction [1]: does not significantly reduce contraction | intracellular chloride (MQAE fluorescence) ([2]; 100 μM niflumic acid): increases intracellular chloride | membrane potential, continuous fluorescence recording (representative tracing) [3]: hyperpolarize | change in relative fluorescent units (membrane potential, FLIPR) ([3]; 100 μM, n=12): −254.7+/−37 RFU
